According to PMC9944328 (Nature Communications, 2023):
Values joined by “and” are separate entries in the source; they are usually repeats but may differ in a detail not shown here. Equal values may be shown once.

Molecular target: SSTR2 (Homo sapiens, UniProt P30874)
Assay: NanoBiT β-arrestin 1 recruitment assay, HEK293 (SSTR2 wild-type);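 as to Best-fit Bottom: percent of maximal wild-type SSTR2 response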;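 as to Best-fit Top: percent of maximal wild-type SSTR2 response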;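 as to Bottom (best-fit): percent of maximal wild-type response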;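 as to Span (best-fit value): percent of maximal wild-type response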;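 as to Span (best-fit): percent of maximal wild-type response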;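 as to Top (best-fit value): percent of maximal wild-type response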;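 as to Top (best-fit): percent of maximal wild-type response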
Type: cell-based
Design: Human full-length SSTR wild-type and mutant vectors were C-terminally fused; expressed in transfected cells; host or cells: HEK293; Best-fit values Bottom / Best-fit values Top / Best-fit values Span / Best-fit Bottom / Best-fit Top / Best-fit Span: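 percent of maximal wild-type SSTR2 response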
Conditions: for β-arrestin recruitment: compared with octreotide, Fig. 1c
Experimental: The NanoBiT β-arrestin 1 recruitment assays were carried out according to the method described previously. […] Human full-length SSTR wild-type and mutant vectors were C-terminally fused with a 15-amino acid flexible linker and the small fragment (SmBiT). HEK293 cells were seeded into six-well microplates at a density of 1.0 × 10^6 cells/well and cultured for 24 h at 37 °C with 5% CO2. After that, cells were co-transfected with pcDNA3.1+ vectors encoding SSTR wild-type or mutants and human β-arrestin 1. After transfecting for 24 h, the transfected cells were suspended and seeded into white 96-well plates, and then cultured at 37 °C overnight. After that the medium in each well was exchanged for 90 μl of 0.01% bovine serum albumin containing 20 μl of 50 μM coelenterazine h (Carbosynth) diluted in the HBSS assay buffer and incubated for 40 min at room temperature. Then, ligands diluted in the assay buffer was added to each well and the luminescence intensity was measured using the Synergy H1 microplate reader and detected at room temperature in a time period. All data presented are means of at least three independent experiments.

[1] = SSTR2-WT control of I284A-1, T194A-1, I195A-3, L99A-3, Q102A-1
[2] = SSTR2-WT control of I284A-2/-3, T194A-2/-3, L99A-1/-2, Q102A-3

SSTR2, sequence (P30874 whole entry): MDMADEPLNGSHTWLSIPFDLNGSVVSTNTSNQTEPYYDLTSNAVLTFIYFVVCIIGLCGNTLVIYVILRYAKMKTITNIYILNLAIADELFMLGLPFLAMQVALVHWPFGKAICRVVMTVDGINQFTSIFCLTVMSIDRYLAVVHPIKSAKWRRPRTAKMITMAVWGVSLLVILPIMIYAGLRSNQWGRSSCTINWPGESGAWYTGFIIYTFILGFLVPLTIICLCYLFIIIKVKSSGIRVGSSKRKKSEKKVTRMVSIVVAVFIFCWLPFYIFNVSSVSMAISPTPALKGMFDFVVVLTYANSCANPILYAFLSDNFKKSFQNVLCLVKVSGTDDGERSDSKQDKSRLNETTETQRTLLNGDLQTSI
SSTR2, sequence (P49407 whole entry partner): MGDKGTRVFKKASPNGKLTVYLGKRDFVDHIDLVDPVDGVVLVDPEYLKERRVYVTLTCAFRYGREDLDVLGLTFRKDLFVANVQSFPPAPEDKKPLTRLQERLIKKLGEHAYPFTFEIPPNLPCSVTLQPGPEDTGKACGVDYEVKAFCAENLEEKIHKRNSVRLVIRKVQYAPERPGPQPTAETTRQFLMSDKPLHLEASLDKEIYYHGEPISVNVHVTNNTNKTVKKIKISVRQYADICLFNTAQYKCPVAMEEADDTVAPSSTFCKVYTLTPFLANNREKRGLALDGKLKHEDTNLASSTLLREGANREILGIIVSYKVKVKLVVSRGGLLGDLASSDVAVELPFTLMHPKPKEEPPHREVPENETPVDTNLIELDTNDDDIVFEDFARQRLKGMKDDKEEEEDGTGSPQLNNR

## N#Cc1cccc(-c2ccc3ncc(-c4cc(F)cc(F)c4)c(N4CCC(N)CC4)c3c2)c1O [paltusotine]
Best-fit EC50, SSTR2-WT control of I284A-1, T194A-1, I195A-3, L99A-3
  EC50: 420 nM
Best-fit EC50, SSTR2-WT control of I284A-2/-3, T194A-2/-3, L99A-1/-2
  EC50: 455 nM
Best-fit EC50, SSTR2-WT-1 control of I195A-1
  EC50: 306 nM
Best-fit EC50, SSTR2-WT-1 control of Y50A-1
  EC50: 216 nM
Best-fit EC50, SSTR2-WT-2 control of I195A-2
  EC50: 295 nM
Best-fit EC50, SSTR2-WT-2 control of Y50A-2
  EC50: 272 nM
Best-fit EC50, SSTR2-WT-3 control of Y50A-3
  EC50: 306 nM
EC50 (best-fit value), SSTR2-WT, run WT-1
  EC50: 455 nM and 420 nM and 141 nM and 1270 nM and 292 nM
EC50 (best-fit value), SSTR2-WT, run WT-2
  EC50: 455 nM and 399 nM and 131 nM and 141 nM and 613 nM
EC50 (best-fit value), SSTR2-WT, run WT-3
  EC50: 726 nM and 216 nM and 292 nM and 131 nM and 538 nM and 455 nM
EC50 (best-fit), WT-1 (D122A set)
  EC50: 420 nM
EC50 (best-fit), WT-1 (F127A set)
  EC50: 307 nM
EC50 (best-fit), WT-1 (I130A set)
  EC50: 292 nM
EC50 (best-fit), WT-1 (Q102A set)
  EC50: 420 nM
EC50 (best-fit), WT-1 (Q126A set)
  EC50: 306 nM
EC50 (best-fit), WT-1 (V103A set)
  EC50: 306 nM
EC50 (best-fit), WT-2 (D122A set)
  EC50: 399 nM
EC50 (best-fit), WT-2 (F127A set)
  EC50: 272 nM
EC50 (best-fit), WT-2 (I130A set)
  EC50: 141 nM
EC50 (best-fit), WT-2 (Q102A set)
  EC50: 339 nM
EC50 (best-fit), WT-2 (Q126A set)
  EC50: 455 nM
EC50 (best-fit), WT-2 (V103A set)
  EC50: 295 nM
EC50 (best-fit), WT-3 (D122A set)
  EC50: 455 nM
EC50 (best-fit), WT-3 (F127A set)
  EC50: 292 nM
EC50 (best-fit), WT-3 (Q102A set)
  EC50: 455 nM
EC50 (best-fit), WT-3 (Q126A set)
  EC50: 455 nM
EC50 (best-fit), WT-3 (V103A set)
  EC50: 306 nM
EC50 (β-arrestin1 recruitment), best-fit, WT-1 (SSTR2-WT set up beside each mutant)
  EC50: 420 nM and 455 nM and 529 nM
EC50 (β-arrestin1 recruitment), best-fit, WT-2 (SSTR2-WT set up beside each mutant)
  EC50: 455 nM and 420 nM and 613 nM
EC50 (β-arrestin1 recruitment), best-fit, WT-3 (SSTR2-WT set up beside each mutant)
  EC50: 420 nM and 538 nM
EC50, β-arrestin recruitment, SSTR2 WT, n=6
  EC50: 406 ± 5.62 nM
HEK293
  Emax: 100%
SSTR2-WT control of I284A-1, T194A-1, I195A-3, L99A-3
  Best-fit Span: 106.9
[1]
  Best-fit Bottom: 1.007
  Best-fit LogEC50: -6.376
  Best-fit Top: 107.9
SSTR2-WT control of I284A-2/-3, T194A-2/-3, L99A-1/-2
  Best-fit Span: 106.4
[2]
  Best-fit Bottom: 0.9805
  Best-fit LogEC50: -6.342
  Best-fit Top: 107.4
SSTR2-WT-1 control of I195A-1
  Best-fit Bottom: 0.5008
  Best-fit LogEC50: -6.514
  Best-fit Span: 104.2
  Best-fit Top: 104.7
SSTR2-WT-1 control of Y50A-1
  Best-fit Bottom: -1.342
  Best-fit LogEC50: -6.666
  Best-fit Span: 105.2
  Best-fit Top: 103.8
SSTR2-WT-2 control of I195A-2
  Best-fit Bottom: 0.4349
  Best-fit LogEC50: -6.531
  Best-fit Span: 102.7
  Best-fit Top: 103.1
SSTR2-WT-2 control of Q102A-2
  Best-fit Bottom: -0.0463
  Best-fit LogEC50: -6.469
SSTR2-WT-2 control of Y50A-2
  Best-fit Bottom: -1.812
  Best-fit LogEC50: -6.566
  Best-fit Span: 107.5
  Best-fit Top: 105.7
SSTR2-WT-3 control of Y50A-3
  Best-fit Bottom: -2.538
  Best-fit LogEC50: -6.515
  Best-fit Span: 108.6
  Best-fit Top: 106.1
SSTR2-WT, run WT-1
  Span (best-fit value): 106.4 and 106.9 and 102.6 and 115.9 and 106
  Top (best-fit value): 107.4 and 107.9 and 101.5 and 113.5 and 105.5
SSTR2-WT, run WT-2
  Span (best-fit value): 106.4 and 103.6 and 103.9 and 102.6 and 106.8
  Top (best-fit value): 107.4 and 106.9 and 102.6 and 101.5 and 107.6
SSTR2-WT, run WT-3
  Span (best-fit value): 112.3 and 105.2 and 106 and 103.9 and 104.9 and 106.4
  Top (best-fit value): 109 and 103.8 and 105.5 and 102.6 and 107.1 and 107.4
SSTR2 WT
  β-arrestin recruitment: lower efficacy of β-arrestin recruitment
SSTR2 WT, listed as Paltusotine
  β-arrestin recruitment: lower β-arrestin recruitment compared with octreotide
WT-1 (D122A set)
  Bottom (best-fit): 1.007
  LogEC50 (best-fit): -6.376
  Span (best-fit): 106.9
  Top (best-fit): 107.9
WT-1 (F127A set)
  Bottom (best-fit): -9.341
  LogEC50 (best-fit): -6.513
  Span (best-fit): 113.7
  Top (best-fit): 104.3
WT-1 (I130A set)
  Bottom (best-fit): -0.4941
  LogEC50 (best-fit): -6.535
  Span (best-fit): 106
  Top (best-fit): 105.5
WT-1 (Q102A set)
  Span (best-fit): 106.9
WT-1 (Q126A set)
  Bottom (best-fit): 0.5008
  LogEC50 (best-fit): -6.514
  Span (best-fit): 104.2
  Top (best-fit): 104.7
WT-1 (V103A set)
  Bottom (best-fit): 0.5008
  LogEC50 (best-fit): -6.514
  Span (best-fit): 104.2
  Top (best-fit): 104.7
WT-2 (D122A set)
  Bottom (best-fit): 3.261
  LogEC50 (best-fit): -6.399
  Span (best-fit): 103.6
  Top (best-fit): 106.9
WT-2 (F127A set)
  Bottom (best-fit): -1.812
  LogEC50 (best-fit): -6.566
  Span (best-fit): 107.5
  Top (best-fit): 105.7
WT-2 (I130A set)
  Bottom (best-fit): -1.026
  LogEC50 (best-fit): -6.849
  Span (best-fit): 102.6
  Top (best-fit): 101.5
WT-2 (Q126A set)
  Bottom (best-fit): 0.9805
  LogEC50 (best-fit): -6.342
  Span (best-fit): 106.4
  Top (best-fit): 107.4
WT-2 (V103A set)
  Bottom (best-fit): 0.4349
  LogEC50 (best-fit): -6.531
  Span (best-fit): 102.7
  Top (best-fit): 103.1
WT-3 (D122A set)
  Bottom (best-fit): 0.9805
  LogEC50 (best-fit): -6.342
  Span (best-fit): 106.4
  Top (best-fit): 107.4
WT-3 (F127A set)
  Bottom (best-fit): -0.4941
  LogEC50 (best-fit): -6.535
  Span (best-fit): 106
  Top (best-fit): 105.5
WT-3 (I130A set)
  Bottom (best-fit): -1.282
  LogEC50 (best-fit): -6.883
  Span (best-fit): 103.9
  Top (best-fit): 102.6
WT-3 (Q102A set)
  Span (best-fit): 106.4
WT-3 (Q126A set)
  Bottom (best-fit): 0.9805
  LogEC50 (best-fit): -6.342
  Span (best-fit): 106.4
  Top (best-fit): 107.4
WT-3 (V103A set)
  Bottom (best-fit): 0.5008
  LogEC50 (best-fit): -6.514
  Span (best-fit): 104.2
  Top (best-fit): 104.7
best-fit, WT-1
  Bottom (β-arrestin1 recruitment): 1.007 and 0.9805 and 0.9636
  LogEC50 (β-arrestin1 recruitment): -6.376 and -6.342 and -6.276
  Span (β-arrestin1 recruitment): 106.9 and 106.4 and 106.5
  Top (β-arrestin1 recruitment): 107.9 and 107.4 and 107.5
best-fit, WT-2
  Bottom (β-arrestin1 recruitment): 0.9805 and 1.007 and 0.8106
  LogEC50 (β-arrestin1 recruitment): -6.342 and -6.376 and -6.212
  Span (β-arrestin1 recruitment): 106.4 and 106.9 and 106.8
  Top (β-arrestin1 recruitment): 107.4 and 107.9 and 107.6
best-fit, WT-3
  LogEC50 (β-arrestin1 recruitment): -6.342 and -6.376 and -6.269
  Span (β-arrestin1 recruitment): 106.4 and 106.9 and 104.9
  Top (β-arrestin1 recruitment): 107.4 and 107.9 and 107.1
β-arrestin recruitment EC50, SSTR2 WT
  Fold of WT: 1
